Source: US9259426B2, “4,6-di- and 2,4,6-trisubstituted quinazoline derivatives useful for treating viral infections” (Gilead Sciences, Inc., priority 2006, dated 2016)

Tests used:
[1] = CC50 assay (CellTiter-Glo) in Huh-7 HCV replicon cells; format: cell-based, human; conditions: human, 3 days incubation, CellTiter-Glo luminescence, read-out: CC50 (50% cytostatic concentration)
Description: (§1) The anti HCV activity of the quinazoline derivatives of this invention was tested in a human hepatoma Huh-7 cell line harbouring a HCV replicon. The assay comprised the following steps:
(§2) Step 1: compound preparation and serial dilution
(§3) • 1. for water soluble quinazoline derivatives, a volume of 500 μL of solution in cell media (DMEM, 10% FBS, P/S, L-Glutamine) was prepared with a concentration being twice the concentration of the starting final serial dilution concentration. A volume of 150 μL of the solution was added to the pre-specified wells in column 1 of a 96-well cell culture plate (PerkinElmer, white plate, cat. #6005181, for EC50 assay; black plate, cat. #6005182 for CC50 assay). The rest of the plate, columns 2-12, was filled with 100 μL of cell media. The plate was then placed on a Precision 2000 Workstation to start the serial dilution. Compounds were diluted three times each step from column 1 to column 10. Column 11 was used as a blank control (no compound added). • 2. for quinazoline derivatives requiring DMSO to dissolve, serial dilution is performed in 50% DMSO in a 384-well plate. A solution containing a compound at 100-fold concentration of the starting final serial dilution concentration was prepared in 50% DMSO and added to the pre-specified wells in column 1 of a polypropylene 384-well plate. The plate was then placed on a Precision 2000 Workstation to start the serial dilution. After the serial dilution, a volume of 2 μL of the solution was transferred from the 384-well plate to a 96-well cell culture plate containing 100 μL of cell media on a Biomek FX Workstation. The DMSO concentration in the final assay condition was 0.5% after cells are added to the plate and the total volume in each well is brought to 200 μL. Step 2: to each well of the serial dilution plate prepared above, 100 μL of cell media containing 6000 suspended Huh-7 HCV replicon cells was added with a Multidrop workstation. The plates were incubated for 3 days at 37° C. with 5% CO2. Step 3: Detection: • a) for the EC50 assay, the media in a 96-well cell culture plate was aspirated with a Biotek EL405 plate-washer. A volume of 200 μL of a solution containing a 1:1 mixture of cell-lysis buffer (Promega, Luciferase Cell Culture Lysis 5× Reagent, cat. #E1531) and luciferase substrate solution (Promega, Luciferase Assay, cat.# E4550) was added to each well of the plate with Multidrop. The plate was incubated for 30 minutes at room temperature before the luminescence signal was measured with a TopCount plate-reader. • b) for the CC50 assay, a volume of 100 μL of pre-mixed CeliTiter-Glo (Promega, cat.# G7572) solution is added directly to the cell culture in each well of the plate and the luminescence signal is measured with a TopCount plate-reader after 10 minutes of incubation at room temperature.
(§4) Results in the table below are expressed by the following data: • the 50% cytostatic concentration (CC50), i.e. the concentration that results in 50% inhibition of cell growth, and • the 50% effective concentration (EC50), i.e. the concentration that protects 50% of the cell monolayer from virus-induced cytopathic effect.

[2] = test system: HCV replicon in human hepatoma Huh-7 cell line; experiment: Anti-HCV replicon assay (EC50, luciferase readout); format: cell-based; conditions: Hepatitis C virus, Huh-7, 72 h, read-out: EC50 (50% effective concentration)
Description: as §1, §2, §3, §4

Huh-7 HCV replicon cells = experiment: CC50 assay (CellTiter-Glo) in Huh-7 HCV replicon cells; format: cell-based, human; conditions: 3 days incubation, CellTiter-Glo luminescence, read-out: CC50 (50% cytostatic concentration)
Description: as §1, §2, §3, §4

SMILES | CC50 at 3 days [1] | EC50 [2] | CC50 (Huh-7 HCV replicon cells)
Fc1ccc(-c2ccc3ncnc(N4CCOCC4)c3c2)cc1 [Example 37, 6-(4-fluorophenyl)-4-(N-morpholino)-quinazoline] | > 20 µM | 1 to 10 µM | 
CN(C)c1ncnc2ccc(-c3ccc(F)cc3)cc12 [Example 45, 4-(N,N-dimethylamino)-6-(4-fluorophenyl)-quinazoline] | > 20 µM | 1 to 10 µM | 
Cn1ccc(Nc2nc(NC3CC3)c3cc(-c4ccc(F)cc4)ccc3n2)n1 [Example 54, N4-cyclopropyl-6-(4-fluoro-phenyl)-N2-(1-methyl-1H-pyrazol-3-yl)-quinazoline-2,4-diamine] | < 10 µM | < 0.3 µM | 
Nc1ncnc2ccc(-c3ccc(F)cc3)cc12 [Example 39, 4-amino-6-(4-fluorophenyl)-quinazoline] | > 20 µM | 1 to 10 µM | 
NS(=O)(=O)c1ccc(CNc2nc(NCC(F)(F)F)c3cc(-c4ccc(C(=O)NC5CC5)cc4)ccc3n2)cc1 [Example 51, N-Cyclopropyl-4-[2-(4-sulfamoyl-benzylamino)-4-(2,2,2-trifluoroethylamino)-quinazolin-6-yl]-benzamide] | > 20 µM | < 0.3 µM | 
COCCNc1nc(N)nc2ccc(-c3ccc(C(=O)NC4CC4)cc3)cc12 [Example 56, 4-[2-Amino-4-(2-methoxy-ethylamino)-quinazolin-6-yl]-N cyclopropyl-benzamide] |  |  | > 20 µM
Fc1ccc(-c2ccc3ncnc(NC4CC4)c3c2)cc1 [Example 47, 4-(N-cyclopropylamino)-6-(4-fluorophenyl)-quinazoline] | > 20 µM | 1 to 10 µM | 
COc1ccc(-c2ccc3nc(N)nc(N4CCOCC4)c3c2)cc1OC [Example 14, 2-amino-6-(3,4-dimethoxyphenyl)-4-(N-morpholino)quinazoline] | < 10 µM | < 0.3 µM | 
CC(=O)Nc1ccc(-c2ccc3nc(N)nc(N4CCN(C(C)=O)CC4)c3c2)cc1 [Example 32, 2-amino-6-(4-acetamidophenyl)-4-(N-acetylpiperazino)quinazoline] | > 20 µM | 1 to 10 µM | 
Nc1nc(N2CCOCC2)c2cc(-c3ccc(F)cc3)ccc2n1 [Example 28, 2-amino-6-(4-fluorophenyl)-4-(N-morpholino)-quinazoline] | < 10 µM | 0.3 to 1 µM | 
COc1ccc(-c2ccc3nc(N)nc(Nc4cccc(Br)c4)c3c2)cc1OC [Example 16, 2-amino-6-(3,4-dimethoxyphenyl)-4-[N-(3-bromo)-anilino]-quinazoline] | > 20 µM | < 0.3 µM | 
CC(=O)Nc1ccc(-c2ccc3nc(N)nc(N4CCN(C)CC4)c3c2)cc1 [Example 34, 2-amino-6-(4-acetamidophenyl)-4-(N-methylpiperazino)quinazoline] | 10 to 20 µM | 1 to 10 µM | 
Nc1nc(Nc2ccccc2)c2cc(-c3ccc(F)cc3)ccc2n1 [Example 48, 2-amino-6-(4-fluorophenyl)-4-(N-anilino)-quinazoline] | < 10 µM | 0.3 to 1 µM | 
NS(=O)(=O)c1ccc(CNc2nc(NCC(F)(F)F)c3cc(-c4ccc(F)cc4)ccc3n2)cc1 [Example 52, 4-{[6-(4-Fluoro-phenyl)-4-(2,2,2-trifluoro-ethylamino)quinazolin-2-ylamino]-methyl}-benzenesulfonamide] | < 10 µM | < 0.3 µM | 
CC(=O)Nc1ccc(-c2ccc3nc(N)nc(N4CCCCC4)c3c2)cc1 [Example 31, 2-amino-6-(4-acetamidophenyl)-4-(N-piperidino)quinazoline] | 10 to 20 µM | 1 to 10 µM | 
CCCNc1ncnc2ccc(-c3ccc(F)cc3)cc12 [Example 43, 4-(N-propylamino)-6-(4-fluorophenyl)-quinazoline] | > 20 µM | 1 to 10 µM | 
CC(=O)Nc1ccc(-c2ccc3nc(N)nc(N4CCOCC4)c3c2)cc1 [Example 30, 2-amino-6-(4-acetamidophenyl)-4-(N-morpholino)quinazoline] | 10 to 20 µM | 1 to 10 µM | 
Nc1nc(N2CCOCC2)c2cc(-c3ccc(Cl)cc3)ccc2n1 [Example 27, 2-amino-6-(4-chlorophenyl)-4-(N-morpholino)-quinazoline] | 10 to 20 µM | 0.3 to 1 µM | 
